Eight molecules from ChEMBL document CHEMBL3046135, “Iodine (III)-mediated synthesis of some 2-aryl/hetarylbenzoxazoles as antibacterial/antifungal agents” (2010) can be followed below.

Assay type in all cases: functional
Assay [1] concerns Escherichia coli. As to the kind of experiment: Antibacterial activity against Escherichia coli MTCC 51 at 10 ug/ml after 24 hr by agar well diffusion method. (A growth-free zone around the sample is the usual read-out of agar diffusion tests.)
Assay [2] deals with Geobacillus stearothermophilus. As to the kind of experiment: Antibacterial activity against Geobacillus stearothermophilus MTCC 8508 at 50 ug/ml after 24 hr by agar well diffusion method.
The test system of assay [3] is Aspergillus flavus. The assay can be described thus: Antifungal activity against Aspergillus flavus at 10 ug/ml after 96 hr.
Assay [4] deals with Aspergillus niger. As to the kind of experiment: Antifungal activity against Aspergillus niger at 10 ug/ml after 96 hr.
The subject of assay [5] is Geobacillus stearothermophilus. The assay can be described thus: Antibacterial activity against Geobacillus stearothermophilus MTCC 8508 at 100 ug/ml after 24 hr by agar well diffusion method.
Assay [6] has as its system Bacillus subtilis. The assay can be described thus: Antibacterial activity against Bacillus subtilis MTCC 121 at 50 ug/ml after 24 hr by agar well diffusion method.
Assay [7] has as its system Bacillus subtilis. As to the kind of experiment: Antibacterial activity against Bacillus subtilis MTCC 121 at 10 ug/ml after 24 hr by agar well diffusion method.
Assay [8] concerns Aspergillus niger. As to the kind of experiment: Antifungal activity against Aspergillus niger at 100 ug/ml after 96 hr.
Assay [9] relates to Aspergillus flavus. As to the kind of experiment: Antifungal activity against Aspergillus flavus at 100 ug/ml after 96 hr.
The test system of assay [10] is Escherichia coli. As to the kind of experiment: Antibacterial activity against Escherichia coli MTCC 51 at 100 ug/ml after 24 hr by agar well diffusion method.
Assay [11] has as its system Aspergillus flavus. As to the kind of experiment: Antifungal activity against Aspergillus flavus at 50 ug/ml after 96 hr.
Assay [12] has as its system Escherichia coli. As to the kind of experiment: Antibacterial activity against Escherichia coli MTCC 51 at 50 ug/ml after 24 hr by agar well diffusion method.
Assay [13] has as its system Bacillus subtilis. As to the kind of experiment: Antibacterial activity against Bacillus subtilis MTCC 121 at 100 ug/ml after 24 hr by agar well diffusion method.
The subject of assay [14] is Aspergillus niger. The assay can be described thus: Antifungal activity against Aspergillus niger at 50 ug/ml after 96 hr.
Assay [15] relates to Pseudomonas putida. The assay can be described thus: Antibacterial activity against Pseudomonas putida at 50 ug/ml after 24 hr by agar well diffusion method.
Assay [16] has as its system Pseudomonas putida. As to the kind of experiment: Antibacterial activity against Pseudomonas putida at 100 ug/ml after 24 hr by agar well diffusion method.
Assay [17] deals with Geobacillus stearothermophilus. As to the kind of experiment: Antibacterial activity against Geobacillus stearothermophilus MTCC 8508 at 10 ug/ml after 24 hr by agar well diffusion method.
Assay [18] deals with Pseudomonas putida. As to the kind of experiment: Antibacterial activity against Pseudomonas putida at 10 ug/ml after 24 hr by agar well diffusion method.

Activity calls are given as the source filed them. No cut-off for these calls is given here.

One may read the inhibition as how much of the control response was suppressed. Higher therefore signals a response far below the control.

On to `O=[N+]([O-])c1ccc(-c2nc3cc(Cl)ccc3o2)cc1`, for which the “diameter of the inhibition zone (DIZ)” value (in the assay on Escherichia coli [1]; in the assay on Bacillus subtilis [7]; in assay [17]; in the assay on Pseudomonas putida [18]) was “inactive” in each case. Besides, the “diameter of the inhibition zone (DIZ)” value in [2] is 12.26%; in assay [5], 19.37%; with Bacillus subtilis [6], 10.13%; in the assay with Escherichia coli [10] it was 30.24%; with Escherichia coli [12] it was 17.14%; in the assay on Bacillus subtilis [13], 17.22%. The results for the “diameter of the inhibition zone (DIZ)” value in the assay with Pseudomonas putida [15] and with Pseudomonas putida [16] were 18.13% and 31.16%, respectively. Also, the inhibition at 10 µg/mL with Aspergillus flavus [3] was found to be 19.9%; with Aspergillus niger [4], 43.2%. The inhibition at 100 µg/mL in the assay with Aspergillus niger [8] came out at 73.6%; in the assay on Aspergillus flavus [9], 78.5%. Further, the inhibition at 50 µg/mL stood at 49.6% with Aspergillus flavus [11] and 66.9% with Aspergillus niger [14].
For `Clc1ccc2oc(-c3cccs3)nc2c1`, the “diameter of the inhibition zone (DIZ)” value in the assay on Escherichia coli [1] stood at 17.74%; in assay [2] it was 32.66%; in assay [5], 39.66%; with Bacillus subtilis [6], 30.53%; in the assay with Bacillus subtilis [7], 19.66%; in the assay on Escherichia coli [10] it was 43.33%. For the same molecule, the “diameter of the inhibition zone (DIZ)” value was 31.77% with Escherichia coli [12]; 41.66% with Bacillus subtilis [13]; 33.66% in the assay with Pseudomonas putida [15]; 44.77% with Pseudomonas putida [16]; 21.33% in [17]; 19.66% in the assay with Pseudomonas putida [18]. For the same molecule, the values for the inhibition at 10 µg/mL with Aspergillus flavus [3] and in the assay on Aspergillus niger [4] were 21.1% and 4.89%, respectively. In addition, the values for the inhibition at 100 µg/mL with Aspergillus niger [8] and in the assay with Aspergillus flavus [9] were 11.8% and 84.2%, respectively. Besides, the inhibition at 50 µg/mL was 47.4% in the assay with Aspergillus flavus [11] and 5.88% in the assay with Aspergillus niger [14].
For the molecule `Cc1ccc(-c2nc3ccccc3o2)s1`, the “diameter of the inhibition zone (DIZ)” value with Escherichia coli [1] is reported as 12.45%; in assay [2] it was 12.66%; in assay [5], 19.66%; in the assay with Bacillus subtilis [6] it was 11.33%; in the assay on Escherichia coli [10], 34.29%; with Escherichia coli [12], 21.74%. In addition, the “diameter of the inhibition zone (DIZ)” value in the assay with Bacillus subtilis [13] was found to be 17.33%; in the assay with Pseudomonas putida [15], 22.33%; with Pseudomonas putida [16] it was 35.45%; with Pseudomonas putida [18], 13.47%. The inhibition at 10 µg/mL in the assay on Aspergillus flavus [3] came out at 24.3%; in the assay with Aspergillus niger [4] it was 4.89%. The “diameter of the inhibition zone (DIZ)” value (in the assay on Bacillus subtilis [7]; in [17]) was “inactive” each time. In addition, the inhibition at 100 µg/mL with Aspergillus niger [8] was determined as 16.6%; with Aspergillus flavus [9] it was 88%. The inhibition at 50 µg/mL in the assay with Aspergillus flavus [11] came out at 51.6%; in the assay on Aspergillus niger [14] it was 5.23%.
In the case of `Clc1ccc2oc(-c3cccnc3)nc2c1`, the “diameter of the inhibition zone (DIZ)” value in the assay with Escherichia coli [1] was 12.66%; in assay [2], 21.43%; in [5], 32.33%; in the assay on Bacillus subtilis [6] it was 22.16%; in the assay on Bacillus subtilis [7], 13.33%; with Escherichia coli [10], 36.74%. For the same molecule, the “diameter of the inhibition zone (DIZ)” value with Escherichia coli [12] is on record as 27.33%; with Bacillus subtilis [13], 33.33%; with Pseudomonas putida [15], 25.33%; in the assay on Pseudomonas putida [16], 35.33%; in assay [17] it was 11.33%; in the assay with Pseudomonas putida [18], 9.66%. Besides, the results for the inhibition at 10 µg/mL with Aspergillus flavus [3] and with Aspergillus niger [4] were 15.8% and 17.6%, respectively. The inhibition at 100 µg/mL worked out at 76.5% with Aspergillus niger [8] and 78.9% in the assay with Aspergillus flavus [9]. Also, the inhibition at 50 µg/mL with Aspergillus flavus [11] amounted to 26.3%; in the assay on Aspergillus niger [14], 41.7%.
On to `Cc1ccc(-c2nc3cc(Cl)ccc3o2)cc1`, for which the “diameter of the inhibition zone (DIZ)” value in the assay with Escherichia coli [1] turned out to be 18.62%; in assay [2] it was 30.87%; in [5], 43.33%; in the assay with Bacillus subtilis [6], 31.37%; with Bacillus subtilis [7], 17.22%; in the assay with Escherichia coli [10] it was 43.33%. In addition, the “diameter of the inhibition zone (DIZ)” value in the assay with Escherichia coli [12] is 32.77%; in the assay with Bacillus subtilis [13] it was 42.13%; in the assay with Pseudomonas putida [15] it was 54.56%; in the assay with Pseudomonas putida [16], 73.47%; in assay [17], 17.92%; with Pseudomonas putida [18], 14.22%. Moreover, the inhibition at 10 µg/mL in the assay with Aspergillus flavus [3] stood at 20.1%; with Aspergillus niger [4] it was 4.19%. The inhibition at 100 µg/mL stood at 21.4% in the assay with Aspergillus niger [8] and 66.9% in the assay on Aspergillus flavus [9]. Further, the values for the inhibition at 50 µg/mL in the assay with Aspergillus flavus [11] and in the assay with Aspergillus niger [14] were 43.2% and 7.47%, respectively.
In the case of `Clc1ccc2oc(-c3ccccc3)nc2c1`, the “diameter of the inhibition zone (DIZ)” value was 19.92% in the assay with Escherichia coli [1]; 27.21% in assay [2]; 36.44% in assay [5]; 26.47% in the assay on Bacillus subtilis [6]; 10.21% in the assay on Bacillus subtilis [7]; 45.33% in the assay with Escherichia coli [10]. The “diameter of the inhibition zone (DIZ)” value came out at 33.87% with Escherichia coli [12]; 36.74% in the assay with Bacillus subtilis [13]; 57.66% with Pseudomonas putida [15]; 76.33% in the assay on Pseudomonas putida [16]; 10.66% in [17]; 15.21% with Pseudomonas putida [18]. The inhibition at 10 µg/mL was found to be 29% in the assay with Aspergillus flavus [3] and 8.93% with Aspergillus niger [4]. The inhibition at 100 µg/mL in the assay with Aspergillus niger [8] was 21.9%; in the assay on Aspergillus flavus [9] it was 86.2%. Further, the inhibition at 50 µg/mL with Aspergillus flavus [11] worked out at 51.4%; in the assay on Aspergillus niger [14] it was 5.88%.
With `O=C(N[C@H](CO)[C@H](O)c1ccc([N+](=O)[O-])cc1)C(Cl)Cl` [CHLORAMPHENICOL], the “diameter of the inhibition zone (DIZ)” value in the assay on Escherichia coli [1] came out at 20.33%; in assay [2] it was 53.2%; in assay [5], 77.2%; in the assay on Bacillus subtilis [6] it was 47.2%; in the assay with Bacillus subtilis [7] it was 26.33%; with Escherichia coli [10], 65.4%. In addition, the “diameter of the inhibition zone (DIZ)” value in the assay with Escherichia coli [12] worked out at 50.4%; in the assay with Bacillus subtilis [13], 64.2%; in the assay on Pseudomonas putida [15], 43.4%; in the assay on Pseudomonas putida [16], 71.24%; in [17], 25.33%; in the assay with Pseudomonas putida [18], 19.33%.
Turning to `C[C@@H]1C[C@@H]([C@H](O)CC2CC(=O)NC(=O)C2)C(=O)[C@@H](C)C1` [CYCLOHEXIMIDE], the inhibition at 10 µg/mL in the assay on Aspergillus flavus [3] came to 15.8%; in the assay on Aspergillus niger [4] it was 11.8%. Moreover, the inhibition at 100 µg/mL in the assay with Aspergillus niger [8] amounted to 35.3%; in the assay on Aspergillus flavus [9], 78.9%. Moreover, the inhibition at 50 µg/mL is 63.1% in the assay with Aspergillus flavus [11] and 23.5% with Aspergillus niger [14].
